From patent US11337968B2, “Phenylquinoline compositions for treatment of ocular disorders and conditions” (The Board of Regents of the University of Oklahoma, priority 2016, dated 2022)
pEC50: −log10 of the molar value. Entries after “also recorded” stand apart in the source; their conditions may differ.

Assays:
[1] = biological target: T1, PPARα (Homo sapiens, UniProt Q07869); assay: PPARα transcriptional activity in PPARα reporter Combo cells (luciferase); type: cell-based; design: host or cells: PPARα reporter Combo cells; conditions: for PPARα transcriptional activity (luciferase), FIG. 1 and 2: 50 μM, PPARα reporter Combo cells; for PPARα transcriptional activity (luciferase), FIG. 1 and 2 / dose dependent effect on PPARα transcriptional activity, FIG. 3: 36 h; for dose dependent effect on PPARα transcriptional activity, FIG. 3: various concentrations up to 100 μM
T1 sequence (Q07869 1-468): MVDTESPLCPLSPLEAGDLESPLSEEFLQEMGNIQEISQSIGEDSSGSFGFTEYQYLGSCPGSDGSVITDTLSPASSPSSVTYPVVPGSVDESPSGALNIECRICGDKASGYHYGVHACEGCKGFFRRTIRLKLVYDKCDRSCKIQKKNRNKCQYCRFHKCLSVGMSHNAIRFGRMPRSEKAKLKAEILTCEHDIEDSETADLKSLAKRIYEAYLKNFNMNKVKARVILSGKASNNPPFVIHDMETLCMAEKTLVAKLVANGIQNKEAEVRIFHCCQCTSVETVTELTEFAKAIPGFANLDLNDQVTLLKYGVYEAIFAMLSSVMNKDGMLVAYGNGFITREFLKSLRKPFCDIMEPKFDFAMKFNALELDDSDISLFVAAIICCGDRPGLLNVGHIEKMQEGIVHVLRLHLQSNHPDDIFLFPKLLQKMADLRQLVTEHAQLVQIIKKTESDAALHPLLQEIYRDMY
Description: The PPARα reporter Combo cells were treated with the indicated compounds at concentrations of 50 μM for 36 h, and then luciferase activities were measured.
The PPARα reporter Combo cells were treated with indicated compounds at concentrations of 50 μM for 36 h, and then luciferase activities were measured.
Various phenylquinoline derivatives of the present disclosure were tested for their effects on PPARα transcriptional activity in PPARα reporter Combo cells, including NCI8 and compounds 1-13 as disclosed herein, as measured against the effect of Feno-FA.
Cells were treated with various compounds at concentrations of 50 μM for 36 h, after which luciferase activities were measured. […] Cells were treated with various compounds at concentrations of 50 μM for 36 h, after which luciferase activities were measured. […] The experiments were repeated as various increasing concentrations comparing the effects of Feno-FA (FIG. 4), NCI8 (FIG. 5), compound 2 (FIG. 6), and compound 8 (FIG. 7).

[2] = test system: ICAM-1, MCP-1, TNF-α; assay: retinal levels of inflammatory factors by Western blotting in OIR model; type: in vivo, C57BL/6 mice; conditions: OIR mice, 10 mg/kg/day i.p. P12 to P16, Western blotting
[3] = test system: human retinal capillary endothelial cells (HRCEC); assay: endothelial cell migration in HRCEC; type: cell-based
[4] = test system: human retinal capillary endothelial cells (HRCEC); assay: tube formation in HRCEC; type: cell-based
[5] = test system: retinal capillaries and pericytes; assay: retinal capillary degeneration and pericyte loss in streptozotocin-induced diabetic rats; type: in vivo; conditions: i.p., 10 mg/kg/day, 3 weeks
[6] = test system: retinal leukostasis; assay: leukostasis assay in oxygen-induced retinopathy (OIR) model; type: in vivo, C57BL/6 mice; conditions: OIR mice, 10 mg/kg/day i.p. P12 to P16, examined at P17, vs vehicle
[7] = test system: ARPE19 cells; assay: palmitate-induced cell death in ARPE19 cells; type: cell-based
[8] = test system: VEGF; assay: expression of VEGF; conditions: potency similar to or higher than fenofibrate
[9] = test system: retinal precursor cells (R28); assay: TUNEL, palmitate-induced apoptosis in retinal precursor cells; type: cell-based
[10] = biological target: T1, PPARα; assay: luciferase-based promoter assay of PPARα activation
Description: The activation of PPARα by NCI8 was measured by luciferase-based promoter assay. […] Student's T-test was used for statistical analysis.

[11] = test system: human retinal Müller cells (MIO-M1); assay: TUNEL, palmitate-induced apoptosis in Müller cells; type: cell-based

PPARα transcriptional activity (luciferase), FIG. 1 and 2 [1] | PPARα transcriptional activity at various increasing concentrations, FIG. 4-7 ([1]; compared with Feno-FA, NCI8, compound 8) | dose dependent effect on PPARα transcriptional activity, FIG. 3 [1] | pEC50 [10] | SMILES | retinal level of ICAM-1 [2] | retinal level of MCP-1 [2] | retinal level of TNF-α [2] | HRCEC migration [3] | concentration range of concentration-dependent inhibition of endothelial cell migration [3] [µM] | HRCEC tube formation [4] | pericyte loss (pericyte numbers) ([5]; diabetic rats) | retinal capillary degeneration (numbers of acellular capillaries in the retina) ([5]; streptozotocin-induced diabetic rats) | number of adherent leukocytes in the retinal vasculature (retinal leukostasis) [6] | RPE cell death induced by palmitate [7] | expression of VEGF [8] | palmitate-induced apoptosis of retinal precursor cells [9] | PPARα transcriptional activity ([10]; luciferase-based promoter assay) | palmitate-induced apoptosis of human retinal Müller cells [11]
highest agonistic activity | greatest agonistic activity | greatest activity | – | COc1ccc(-c2cc(C(=O)O)c3ccccc3n2)cc1OC [Compound 2, 2-(3,4-dimethoxyphenyl) quinoline-4-carboxylic acid] | – | – | – | – | – | – | – | – | – | – | – | – | – | –
highest agonistic activity | – | greatest activity | – | O=C(O)c1cc(-c2ccccc2O)nc2ccccc12 [Compound 8, 2-(2-hydroxyphenyl) quinoline-4-carboxylic acid] | – | – | – | – | – | – | – | – | – | – | – | – | – | –
– | – | – | 4.30 | Cc1c(Cl)ccc2c(C(=O)O)cc(-c3ccccc3)nc12 [NCI8, 7-chloro-8-methyl-2-phenylquinoline-4-carboxylic acid] | downregulated; also recorded: significantly down-regulated | downregulated; also recorded: significantly down-regulated | downregulated; also recorded: significantly down-regulated | significantly inhibited | 50 to 200 | significantly inhibited; also recorded: higher potency than fenofibric acid | ameliorated; also recorded: significantly increased | ameliorated; also recorded: decreased | decreased; also recorded: significantly reduced | protection of RPE cells from cell death | inhibited | protective effect | activated PPARα transcriptional activity in a concentration-dependent manner; also recorded: Potent effects in enhancing transcriptional activities of PPARα | protective effect
